Results from patent publication US4663453A, “Benzo[b]pyrrolo[3,2,1-jk][1,4]benzodiazepines having dopamine receptor activity” (Hoechst-Roussel Pharmaceuticals Inc., priority 1985, dated 1987).
Structures can show the parent of a compound that is named as a salt.

Legend:
apomorphine climbing = experiment: climbing mice assay (antipsychotic activity, apomorphine-induced climbing); assay type: in vivo, mice (CK-1 male); settings: Mus musculus, po, apomorphine 1.5 mg/kg sc challenge
Description: Antipsychotic activity is determined in the climbing mice assay by a method similar to those described by P. Protais, et al., Psychopharmacol., 50, 1 (1976) and B. Costall, Eur. J. Pharmacol., 50, 39 (1978).
The subject CK-1 male mice (23-27 grams) are group-housed under standard laboratory conditions. The mice are individually placed in wire mesh stick cages (4"×4"×10") and are allowed one hour for adaptation and exploration of the new environment. Then apomorphine is injected subcutaneously at 1.5 mg/kg, a dose causing climbing in all subjects for 30 minutes. Compounds to be tested for antipsychotic activity are injected intraperitoneally or given oral doses at various time intervals, e.g. 30 minutes, 60 minutes, etc. prior to the apomorphine challenge at a screening dose of 10-60 mg/kg.
For evaluation of climbing, 3 readings are taken at 10, 20 and 30 minutes after apomorphine administration according to the following scale:
4 paws on bottom (no climbing)
2 paws on the wall (rearing)
4 paws on the wall (full climb)
Mice consistently climbing before the injection of apomorphine will be discarded.
With full-developed apomorphine climbing, the animals are hanging on to the cage walls, rather motionless, over longer periods of time. By contrast, climbs due to mere motor stimulation usually only last a few seconds.
The climbing scores are individually totaled (maximal score: 6 per mouse over 3 readings) and the total score of the control group (vehicle intraperitoneally--apomorphine subcutaneously) is set to 100%. ED50 values with 95% confidence limits, calculated by a Linear Regression Analysis, of some of the instant benzopyrrolobenzodiazepines as well as a standard antipsychotic agent are presented in Table 1.

[1] = system: phenylquinone induced writhing; experiment: phenyl-p-quinone writhing assay in mice (analgesia); assay type: in vivo; settings: Mus musculus, sc, dose for approximately 50% inhibition of writhing
Description: Some of the benzopyrrolobenzodiazepines and quinobenzodiazepines of the present invention are also useful as analgetics due to their ability to alleviate pain in mammals. […] Exptl. Biol Med., 95 729 (1957)]. Thus, for instance, the subcutaneous dose effecting an approximately 50% inhibition of writhing (ED50) in mice produced in this assay is as shown in Table 2.

| Structure (SMILES) | ED50 (apomorphine climbing) [mg/kg] | ED50 [1] [mg/kg] |
| --- | --- | --- |
| CN1CCN(C2=Nc3cc(Cl)ccc3Nc3ccccc32)CC1 [clozapine, reference compound] | 23.2 |  |
| CCC(=O)O[C@](Cc1ccccc1)(c1ccccc1)[C@H](C)CN(C)C [propoxyphene, reference compound] |  | 3.9 |
| CN1CCN(C2=Nc3cc(Br)ccc3-n3ccc4cccc2c43)CC1 [9-Bromo-6-(4-methyl-1-piperazinyl)benzo[b]pyrrolo[3,2,1-jk][1,4]benzodiazepine] | 13.5 | 0.72 |
| CN1CCN(C2=Nc3cc(Cl)ccc3N3CCc4cccc2c43)CC1 [9-chloro-6-(4-methyl-1-piperazinyl)-1,2-dihydrobenzo[b]pyrrolo[3,2,1-jk][1,4]benzodiazepine] |  | 4.1 |
| CN1CCN(C2=Nc3cc(Br)ccc3N3CCc4cccc2c43)CC1 [9-Bromo-6-(4-methyl-1-piperazinyl)-1,2-dihydrobenzo[b]pyrrolo[3,2,1-jk][1,4]benzodiazepine] | 30.8 |  |
| CN(C)CCN(C)C1=Nc2cc(Br)ccc2N2CCc3cccc1c32 [9-Bromo-6-[(2-dimethylamino)-N-methylethylamino]-1,2-dihydrobenzo[b]pyrrolo[3,2,1-jk][1,4]benzodiazepine Dimaleate salt] |  | 8.1 |
| CN1CCN(C2=Nc3ccccc3-n3ccc4cc(Cl)cc2c43)CC1 [4-Chloro-6-(4-methyl-1-piperazinyl)benzo[b]pyrrolo[3,2,1-jk][1,4]benzodiazepine] | 13.4 |  |
| Cc1ccc2c(c1)N=C(N1CCN(C)CC1)c1cccc3c1N2CC3 [9-Methyl-6-(4-methyl-1-piperazinyl)-1,2-dihydrobenzo[b]pyrrolo[3,2,1-jk][1,4]benzodiazepine] | 25.5 | 0.34 |
